These compounds were tested against T1, CDK1/cyclinB1 (Homo sapiens, UniProt P06493) (assay: Cyclin B1-CDK1 kinase inhibition test). Details: CDK1 tests (Example 13); recombinant cyclin B1/CDK1, substrate histone H1; read-out: CDK1/cyclinB1 IC50 value.
T1 construct: made in house; host or cells: High Five insect cells (Trichoplusia ni), baculovirus coinfection
T1 sequence (P06493 whole entry): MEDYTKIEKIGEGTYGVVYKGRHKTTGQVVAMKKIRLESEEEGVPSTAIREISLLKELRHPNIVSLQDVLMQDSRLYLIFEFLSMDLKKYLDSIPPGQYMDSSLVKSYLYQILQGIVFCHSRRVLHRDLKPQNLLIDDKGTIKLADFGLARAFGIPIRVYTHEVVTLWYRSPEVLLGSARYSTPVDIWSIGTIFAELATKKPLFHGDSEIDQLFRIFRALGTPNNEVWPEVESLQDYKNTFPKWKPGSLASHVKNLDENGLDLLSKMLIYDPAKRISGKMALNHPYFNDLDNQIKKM
T1 sequence (P14635 whole entry partner): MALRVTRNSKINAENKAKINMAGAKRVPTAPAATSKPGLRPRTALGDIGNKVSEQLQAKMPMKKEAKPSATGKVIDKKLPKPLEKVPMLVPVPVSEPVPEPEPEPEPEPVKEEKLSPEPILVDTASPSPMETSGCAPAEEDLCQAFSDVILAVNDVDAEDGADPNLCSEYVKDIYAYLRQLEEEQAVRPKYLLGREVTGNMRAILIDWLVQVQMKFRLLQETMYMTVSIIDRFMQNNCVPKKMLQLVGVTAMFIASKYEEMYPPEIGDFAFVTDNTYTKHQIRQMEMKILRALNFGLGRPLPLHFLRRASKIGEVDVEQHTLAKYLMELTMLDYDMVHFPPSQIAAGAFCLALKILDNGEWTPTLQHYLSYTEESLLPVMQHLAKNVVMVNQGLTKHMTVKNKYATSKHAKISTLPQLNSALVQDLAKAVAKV
Format: biochemical
How it was run: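 Baculovirus-expressed CDK1/cyclin B1 phosphorylated histone H1 with ATP mix containing 0.045 mM ATP plus ^33P-ATP for 30 min at 30 °C. Protein was precipitated with TCA and filter-bound radioactivity read by scintillation counting. Olomoucin at 30 and 300 μM final served as internal control.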
For CC(=O)NCCNc1nc(Nc2ccc(S(=O)(=O)N(C)C)cc2)ncc1Br [Example 1(652), N-{2-[5-Bromo-2-(4-dimethylsulphamoyl-phenylamino)-pyrimidin-4-ylamino]-ethyl}-acetamide], the IC50 was less than 0.1 µM. In the case of Brc1cnc(Nc2ccc3cn[nH]c3c2)nc1N1CCc2nc[nH]c2CC1 [Example 2(141), [5-Bromo-4-(4,5,7,8-tetrahydro-1H-imidazo[4,5-d]azepin-6-yl)-pyrimidin-2-yl]-(1H-indazol-6-yl)-amine], the IC50 is reported as less than 0.1 µM. CC(=O)NCCNc1nc(Nc2ccc3cn(C)nc3c2)ncc1C(F)(F)F [Example 1(656), N-{2-[2-(2-methyl-2H-indazol-6-ylamino)-5-trifluoromethyl-pyrimidin-4-ylamino]-ethyl}-acetamide] showed an IC50 of less than 0.1 µM. Work on O=C1NCCN1CCNc1nc(Nc2ccc(S(=O)(=O)N3CCOCC3)cc2)ncc1C(F)(F)F [Example 2(051), 1-(2-{2-[4-(Morpholin-4-sulphonyl)-phenylamino]-5-trifluoromethyl-pyrimidin-4-ylamino}-ethyl)-imidazolidin-2-one] yielded an IC50 of less than 0.1 µM. CC(=O)NCCNc1nc(Nc2ccc(S(=O)(=O)C(C)C)cc2)ncc1C(F)(F)F [Example 1(692), N-(2-{2-[4-(propane-2-sulphonyl)-phenylamino]-5-trifluoromethyl-pyrimidin-4-ylamino}-ethyl)-acetamide] gave an IC50 of less than 0.1 µM. CC(=O)NCCNc1nc(Nc2ccccc2)ncc1C(F)(F)F [Example 2(062), N-[2-(2-phenylamino-5-trifluoromethylpyrimidin-4-ylamino)-ethyl]-acetamide] showed an IC50 of less than 0.1 µM. COCCNc1nc(Nc2ccc(Cl)c(Cl)c2)ncc1C(F)(F)F [Example 1(093), 2-(3,4-dichloro-phenylamino)-4-(2-methoxy-1-ethylamino)-5-trifluoromethyl-pyrimidine] gave an IC50 of less than 0.1 µM. C#Cc1cnc(Nc2ccc(S(=O)(=O)N(C)C)cc2)nc1NCCNC(C)=O [Example 4(001), N-{2-[2-(4-dimethylsulphamoyl-phenylamino)-5-ethynyl-pyrimidin-4-ylamino]-ethyl}-acetamide] gave an IC50 of less than 0.1 µM. Work on CS(=O)(=O)NCCNc1nc(Nc2ccc(Cl)c(Cl)c2)ncc1C(F)(F)F [Example 7(001), N-(2-[2-(3,4-dichloro-phenylamino)-5-trifluoromethyl-pyrimidin-4-ylamino]-ethyl)-methanesulphonamide] yielded an IC50 of less than 0.1 µM. CC(=O)NCCNc1nc(Nc2cccc(S(=O)(=O)N(C)C)c2)ncc1C(F)(F)F [Example 1(651), N-{2-[2-(3-dimethylsulphamoyl-phenylamino)-5-trifluoromethyl-pyrimidin-4-ylamino]-ethyl}-acetamide] showed an IC50 of less than 0.1 µM. Work on CC(=O)NCCNc1nc(Nc2cccc([N+](=O)[O-])c2)ncc1C(F)(F)F [Example 2(010), 2-(3-Nitro-phenylamino)-4-(2-acetylamino-ethylamino)-5-trifluoromethyl-pyrimidine] yielded an IC50 of less than 0.1 µM. In the case of CC(=O)NCCNc1nc(Nc2ccc3[nH]cnc3c2)ncc1C(F)(F)F [Example 2(043), N-{2-[2-(1H-Benzimidazol-5-ylamino)-5-trifluoromethyl-pyrimidin-4-ylamino]-ethyl}-acetamide], the IC50 is reported as less than 0.1 µM. CC(=O)NCCNc1nc(Nc2ccc(Cl)c(C(F)(F)F)c2)ncc1C(F)(F)F [Example 2(013), 2-(4-chloro-3-trifluoromethyl-phenylamino)-4-(2-acetylamino-ethylamino)-5-trifluoromethyl-pyrimidine] gave an IC50 of less than 0.1 µM. NC1CCCC(Nc2nc(Nc3ccc4ccccc4c3)ncc2C(F)(F)F)C1 (stereo not shown) [Example 1(039), 2-(2-naphthylamino)-4-(3-amino-cyclohexylamino)-5-trifluoromethyl-pyrimidine] was tested, and the IC50 was less than 0.1 µM. Compound O=C1CCCN1CCCNc1nc(Nc2ccc(-c3nn[nH]n3)cc2)ncc1C(F)(F)F [Example 2(076), 1-(3-{2-[4-(2H-tetrazol-5-yl)-phenylamino]-5-trifluoromethyl-pyrimidin-4-ylamino}-propyl)-pyrrolidin-2-one] has an IC50 of less than 0.1 µM. CC(=O)NCCNc1nc(Nc2ccc(Cl)cc2)ncc1C(F)(F)F [Example 2(016), 2-(4-chloro-phenylamino)-4-(2-acetylamino-ethylamino)-5-trifluoromethyl-pyrimidine] showed an IC50 of less than 0.1 µM. O=[N+]([O-])c1cnc(Nc2ccc(Cl)cc2)nc1N1CCc2[nH]cnc2C1 [Example 1(010), 2-(4-chlorophenylamino)-4-(1,4,6,7-tetrahydro-imidazo[4,5-c]pyridin-5-yl)-5-nitro-pyrimidine] gave an IC50 of less than 0.1 µM. Compound CC(=O)N(C)CCN(C)c1nc(Nc2ccc(S(=O)(=O)N(C)C)cc2)ncc1C(F)(F)F [Example 1(690), N-(2-{[2-(4-dimethylsulphamoyl-phenylamino)-5-trifluoromethyl-pyrimidin-4-yl]-methyl-amino}-ethyl)-N-methyl-acetamide] has an IC50 of less than 0.1 µM. For NCCNc1nc(Nc2ccc(S(=O)(=O)N3CCOCC3)cc2)ncc1C(F)(F)F [Example 1(689), N4-(2-amino-ethyl)-N2-[4-(morpholine-4-sulphonyl)-phenyl]-5-trifluoromethyl-pyrimidine-2,4-diamine], the IC50 was less than 0.1 µM. For CC(=O)NCCNc1nc(Nc2ccc(C(=O)N(C)C)c(Cl)c2)ncc1C(F)(F)F [Example 8(007), 4-[4-(2-acetylamino-ethylamino)-5-trifluoromethyl-pyrimidin-2-ylamino]-2-chloro-N,N-dimethyl-benzamide], the IC50 was less than 0.1 µM. CC(=O)NCCNc1nc(Nc2cc(Cl)cc(Cl)c2)ncc1C(F)(F)F [Example 2(015), 2-(3,5-Dichloro-phenylamino)-4-(2-acetylamino-ethylamino)-5-trifluoromethyl-pyrimidine] showed an IC50 of less than 0.1 µM. With FC(F)(F)c1cnc(Nc2ccc(Cl)cc2)nc1N1CCc2[nH]cnc2C1 [Example 1(004), 2-(4-chlorophenylamino)-4-(1,4,6,7-tetrahydro-imidazo[4,5-c]pyridin-5-yl)-5-trifluoromethyl-pyrimidine] the IC50 was less than 0.1 µM. With O=[N+]([O-])c1cnc(Nc2ccc(F)c(Cl)c2)nc1N1CCc2[nH]cnc2C1 [Example 1(015), 2-(3-chloro-4-fluoro-phenylamino)-4-(1,4,6,7-tetrahydro-imidazo[4,5-c]pyridin-5-yl)-5-nitro-pyrimidine] the IC50 was less than 0.1 µM. For CN(C)[C@H]1CC[C@H](Nc2nc(Nc3ccc(C(=O)O)cc3)ncc2[N+](=O)[O-])CC1 [Example 1(018), 2-(4-carboxy-phenylamino)-4-(trans-4-dimethylamino-cyclohexylamino)-5-nitro-pyrimidine], the IC50 was less than 0.1 µM. For CC(C)C(=O)NCCCNc1nc(Nc2ccc3cnn(C)c3c2)ncc1C(F)(F)F [Example 7(002), N-{3-[2-(1-methyl-1H-indazol-6-ylamino)-5-trifluoromethyl-pyrimidin-4-ylamino]-propyl}-isobutyramide], the IC50 was less than 0.1 µM. COC(=O)NCCCNc1nc(Nc2ccc3cnn(C)c3c2)ncc1C(F)(F)F [Example 7(022)] gave an IC50 of less than 0.1 µM. In the case of NCC1CCC(CNc2nc(Nc3cccc(Br)c3)ncc2C(F)(F)F)CC1 (stereo not shown) [Example 1(088), 2-(3-bromo-phenylamino)-4-(4-aminomethyl-cyclohexylmethylamino)-5-trifluoromethyl-pyrimidine], the IC50 is reported as less than 0.1 µM. Compound CC(C)CC(=O)NCCCNc1nc(Nc2ccc3cnn(C)c3c2)ncc1C(F)(F)F [Example 7(015), 3-methyl-N-{3-[2-(1-methyl-1H-indazol-6-ylamino)-5-trifluoromethyl-pyrimidin-4-ylamino]-propyl}-butyramide] has an IC50 of less than 0.1 µM. NC1CCC(Nc2nc(Nc3ccc(Cl)c(Cl)c3)ncc2C(F)(F)F)CC1 (stereo not shown) [Example 1(109), 2-(3,4-dichlorophenylamino)-4-(4-amino-cyclohexylamino)-5-trifluoromethyl-pyrimidine] gave an IC50 of less than 0.1 µM. CCN(CC)C(=O)NCCCNc1nc(Nc2ccc3cnn(C)c3c2)ncc1C(F)(F)F [Example 7(032), 1,1-diethyl-3-{3-[2-(1-methyl-1H-indazol-6-ylamino)-5-trifluoromethyl-pyrimidin-4-ylamino]-propyl}-urea] was tested, and the IC50 was less than 0.1 µM. With NC(=O)c1cccc(Nc2ncc([N+](=O)[O-])c(N3CCc4[nH]cnc4C3)n2)c1 [Example 1(022), 2-(3-aminocarbonyl-phenylamino)-4-(1,4,6,7-tetrahydro-imidazo[4,5-c]pyridin-5-yl)-5-nitro-pyrimidine] the IC50 was less than 0.1 µM. Work on CC(=O)NCCCNc1nc(Nc2ccc(Cl)c(Cl)c2)ncc1C(F)(F)F [Example 7(010), N-(3-[2-(3,4-dichloro-phenylamino)-5-trifluoromethyl-pyrimidin-4-ylamino]-propyl)-acetamide] yielded an IC50 of less than 0.1 µM. Compound O=C(O)CCc1ccc(Nc2ncc([N+](=O)[O-])c(N3CCc4[nH]cnc4C3)n2)cc1 [Example 1(112), 2-(4-(2-carboxy-1-ethyl)-phenylamino)-4-(1,4,6,7-tetrahydro-imidazo[4,5-c]pyridin-5-yl)-5-nitro-pyrimidine] has an IC50 of less than 0.1 µM. CC(=O)NCCNc1nc(Nc2ccc(NS(C)(=O)=O)cc2)ncc1C(F)(F)F [Example 10(014), N-(2-[2-(4-methanesulphonylamido-phenylamino)-5-trifluoromethyl-pyrimidin-4-ylamino]-ethyl)-acetamide] showed an IC50 of less than 0.1 µM. CN(C)S(=O)(=O)c1ccc(Nc2ncc(C(F)(F)F)c(N3CCc4nc[nH]c4C3)n2)cc1 [Example 1(694), N,N-dimethyl-4-[4-(3,4,6,7-tetrahydro-imidazo[4,5-c]pyridin-5-yl)-5-trifluoromethyl-pyrimidin-2-ylamino]-phenylsulphonamide] showed an IC50 of less than 0.1 µM. NCC1CCN(c2nc(Nc3ccc(Br)cc3)ncc2C(F)(F)F)CC1 [Example 1(043)] showed an IC50 of less than 0.1 µM. Compound O=[N+]([O-])c1cnc(NCc2ccccc2Br)nc1N1CC[S+]([O-])CC1 [Example 1(628), 2-(2-bromo-benzylamino)-4-(S-oxido-thiomorpholino)-5-nitro-pyrimidine] has an IC50 of less than 0.1 µM.

— patent US8420630B2 (Boehringer Ingelheim Pharma GmbH & Co. KG, priority 2001, dated 2013)
